The results in this text go back to patent publication US20260034123A1 (Cedilla Therapeutics, Inc., priority 2022, published 2026).

The structures appear in SMILES notation.

For test [1], the target named is T1, CDK2/Cyclin E1 (Homo sapiens, UniProt P24941). Nature of the test: Caliper LabChip EZ Reader mobility shift assay. The class given is biochemical. Particulars: 2.5 nM CDK2/Cyclin E1(14-475), 100 μM ATP, 30 min preincubation; read-out: Caliper Assay (CDK2/CCNE1): IC50. On the procedure:
Inhibition of CDK2/Cyclin E1 activity in the presence of compounds of the present disclosure was evaluated using a Caliper LabChip® EZ Reader mobility shift assay. In the assay, activated CDK2/Cyclin E1 catalyzes the phosphorylation of a fluorescently tagged peptide 5-FAM-QSPKKG-CONH2 (PerkinElmer, FL Peptide 18) which induces a difference in capillary electrophoresis mobility. The peptide substrate and product were measured, and the conversion ratio was used to determine the inhibition (as % activity and IC50 values) of CDK2/Cyclin E1. Reactions contained 50 mM HEPES pH 7.5, 10 mM MgCl2, 1 mM EDTA, 2 mM DTT, 0.01% Brij35, 0.5 mg/mL BSA, 0.1% DMSO, 2.5 nM CDK2/Cyclin E1(14-475), 100 μM ATP, and 1.5 μM fluorescent peptide substrate.
Dose titrations of inhibitors in 100% DMSO were combined with 3.25 nM CDK2/Cyclin E1(14-475) and 130 μM of ATP in reaction buffer. The mixtures were incubated for 30 minutes before the addition of fluorescent peptide substrate to initiate the kinase reaction. The final conditions were 2.5 nM CDK2/Cyclin E1(14-475), 100 μM ATP, and 1.5 μM fluorescent peptide. The reactions were stopped after 100 minutes with the addition of EDTA (6 mM final EDTA concentration). The stopped reactions were analyzed on a Caliper LabChip® EZ Reader 11. The conversion ratios were normalized to yield % activity, plotted against compound concentration, and fit to a four-parameter equation to determine the IC50 for each compound.

Test [2] has as its target T1, CDK2/Cyclin E1. Nature of the test: ADP-Glo Luminescent Kinase Assay (CDK2/E1-37C). Particulars: 0.18 nM CDK2/Cyclin E1, 100 μM ATP, Histone H1, 37° C.; read-out: ADPGLO (CDK2/E1-37C): IC50. It counts as biochemical. Summed up:
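Activated CDK2/Cyclin E1 (0.18 nM final) preincubated with compound 60 min at 37 °C, then reacted with 100 μM ATP and Histone H1 ([…]) for 90 min at 37 °C in HEPES pH 7.5 buffer. ADP-Glo luminescence normalized to % activity; IC50 from four-parameter fit.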

In test [3] the test system is Kuramochi cells RB-WT. Nature of the test: IncuCyte Kuramochi cell proliferation assay, RB-WT. The class given is cell-based. The settings on record: 72 hours, cell count. Summed up:
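mApple-H2B-labelled Kuramochi cells were treated with a 10-point, half-log series (top 20 µM) and imaged at 0 and 72 h. Fluorescent nuclei were counted, and the 0–72 h fold change was normalized to DMSO wells. GI50 came from dose-response fits.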

`CC1(C)C[C@@H]1C(=O)N1CC2(CN(C(=O)c3cncs3)CC2COCc2cccc(-c3ccc(C(F)(F)F)cc3)c2C(=O)O)C1` (stereo partly drawn) [Compound I-4, 3-(((2-((S)-2,2-dimethylcyclopropane-1-carbonyl)-6-(thiazole-5-carbonyl)-2,6-diazaspiro[3.4]octan-8-yl)methoxy)methyl)-4′-(trifluoromethyl)-[1,1′-biphenyl]-2-carboxylic acid]: the values for the IC50 in test [1], in test [2] and in test [3] were below 0.01 µM, 0.5 to 5 µM and above 10 µM, respectively.
Taken in the same sequence, the figures for `COC(=O)c1c(COCC2CN(C(=O)c3cncs3)CC23CN(C(=O)[C@H]2CC2(C)C)C3)cccc1-c1ccc(C(F)(F)F)cc1` (stereo partly drawn) [Compound I-5, methyl 3-(((2-((S)-2,2-dimethylcyclopropane-1-carbonyl)-6-(thiazole-5-carbonyl)-2,6-diazaspiro[3.4]octan-8-yl)methoxy)methyl)-4′-(trifluoromethyl)-[1,1′-biphenyl]-2-carboxylate] were 0.01 to 0.1 µM, 0.5 to 5 µM and 5 to 10 µM.
For `CC1(C)C[C@@H]1C(=O)N1CC2(CN(C(=O)c3cnn(Cc4ccc(C(=O)O)cc4)c3)CC2COCc2cccc(-c3ccc(C(F)(F)F)cc3)n2)C1` (stereo partly drawn) [Compound I-6, 4-((4-(2-((S)-2,2-dimethylcyclopropane-1-carbonyl)-8-(((6-(4-(trifluoromethyl)phenyl)pyridin-2-yl)methoxy)methyl)-2,6-diazaspiro[3.4]octane-6-carbonyl)-1H-pyrazol-1-yl)methyl)benzoic acid], in that order: 1 to 10 µM, above 10 µM and above 10 µM.
`CC1(C)C[C@@H]1C(=O)N1CC2(CN(C(=O)c3cncs3)C[C@H]2COCc2cccc(-c3ccc(C(F)(F)F)cc3F)n2)C1` [Compound I-33, ((S)-2-((S)-2,2-dimethylcyclopropane-1-carbonyl)-8-(((6-(2-fluoro-4-(trifluoromethyl)phenyl)pyridin-2-yl)methoxy)methyl)-2,6-diazaspiro[3.4]octan-6-yl)(thiazol-5-yl) methanone]: the IC50 in test [1] fell in the range of 0.01 to 0.1 µM; in test [3], 5 to 10 µM.
For `CC(OCc1cccc(C2CCOCC2)n1)[C@@H]1CN(C(=O)c2cncs2)CC12CN(C(=O)[C@H]1CC1(C)C)C2` (stereo partly drawn) [Compound I-35, ((S)-2-((S)-2,2-dimethylcyclopropane-1-carbonyl)-8-(1-((6-(tetrahydro-2H-pyran-4-yl)pyridin-2-yl)methoxy)ethyl)-2,6-diazaspiro [3.4]octan-6-yl) (thiazol-5-yl) methanone], in that order: above 10 µM and above 10 µM.
Taken in the same sequence, the figures for `CC1(C)C[C@@H]1C(=O)N1CC2(CN(C(=O)c3cncs3)C[C@H]2COCc2ccnn2C2CCCC2)C1` [Compound I-37, ((S)-8-(((1-cyclopentyl-1H-pyrazol-5-yl)methoxy)methyl)-2-((S)-2,2-dimethylcyclopropanecarbonyl)-2,6-diazaspiro[3.4]octan-6-yl)(thiazol-5-yl)methanone] were above 10 µM and above 10 µM.
For `CC1(C)C[C@@H]1C(=O)N1CC2(CN(C(=O)c3cncs3)C[C@H]2COCc2ccc(Cl)c(Cl)c2)C1` [Compound I-40, ((S)-8-(((3,4-dichlorobenzyl)oxy)methyl)-2-((S)-2,2-dimethylcyclopropanecarbonyl)-2,6-diazaspiro[3.4]octan-6-yl)(thiazol-5-yl)methanone], the IC50 was 1 to 10 µM in test [1] and above 10 µM in test [3].
For `CC1(C)C[C@@H]1C(=O)N1CC2(CN(C(=O)c3cncs3)C[C@H]2COCc2ccc(C(F)(F)F)cc2)C1` [Compound I-41, ((S)-2-((S)-2,2-dimethylcyclopropane-1-carbonyl)-8-(((4-(trifluoromethyl)benzyl)oxy)methyl)-2,6-diazaspiro[3.4]octan-6-yl)(thiazol-5-yl)methanone], in that order: 1 to 10 µM and above 10 µM.
Taken in the same sequence, the figures for `CC1(C)C[C@@H]1C(=O)N1CC2(CN(C(=O)c3cncs3)C[C@H]2COCc2cncc(C3CCOCC3)c2)C1` [Compound I-42, ((S)-2-((S)-2,2-dimethylcyclopropane-1-carbonyl)-8-(((5-(tetrahydro-2H-pyran-4-yl)pyridin-3-yl)methoxy)methyl)-2,6-diazaspiro[3.4]octan-6-yl)(thiazol-5-yl)methanone] were 1 to 10 µM and above 10 µM.
For `CC1(C)C[C@@H]1C(=O)N1CC2(CN(C(=O)c3cncs3)C[C@H]2COCc2cc(C3CCOCC3)ccn2)C1` [Compound I-43, ((S)-2-((S)-2,2-dimethylcyclopropane-1-carbonyl)-8-(((4-(tetrahydro-2H-pyran-4-yl)pyridin-2-yl)methoxy)methyl)-2,6-diazaspiro[3.4]octan-6-yl)(thiazol-5-yl)methanone], in that order: 1 to 10 µM and above 10 µM.
On to `CC1(C)C[C@@H]1C(=O)N1CC2(CN(C(=O)c3cncs3)C[C@H]2COCc2cccc(C(F)(F)F)c2)C1` [Compound I-44, ((S)-2-((S)-2,2-dimethylcyclopropanecarbonyl)-8-(((3-(trifluoromethyl)benzyl)oxy)methyl)-2,6-diazaspiro[3.4]octan-6-yl)(thiazol-5-yl)methanone], for which the results for the IC50 in test [1] and in test [3] were 1 to 10 µM and above 10 µM, respectively.
Taken in the same sequence, the figures for `CC1(C)C[C@@H]1C(=O)N1CC2(CN(C(=O)c3cncs3)C[C@H]2COCc2ccnc(C3CCOCC3)c2)C1` [Compound I-45, ((S)-2-((S)-2,2-dimethylcyclopropane-1-carbonyl)-8-(((2-(tetrahydro-2H-pyran-4-yl)pyridin-4-yl)methoxy)methyl)-2,6-diazaspiro[3.4]octan-6-yl)(thiazol-5-yl)methanone] were above 10 µM and above 10 µM.
For `CC1(C)C[C@@H]1C(=O)N1CC2(C1)CN(c1cccc3ncsc13)CC2COCc1cccc(C2CCOCC2)n1` (some centres unmarked) [Compound I-46], in that order: above 10 µM and above 10 µM.
For `CC1(C)C[C@@H]1C(=O)N1CC2(C1)CN(c1ncnc3ncsc13)CC2COCc1cccc(C2CCOCC2)n1` (stereo partly drawn) [Compound I-47, ((S)-2,2-dimethylcyclopropyl)(8-(((6-(tetrahydro-2H-pyran-4-yl)pyridin-2-yl)methoxy)methyl)-6-(thiazolo[4,5-d]pyrimidin-7-yl)-2,6-diazaspiro[3.4]octan-2-yl)methanone], in that order: above 10 µM and above 10 µM.
`CC1(C)C[C@@H]1C(=O)N1CC2(CN(C(=O)c3cncs3)CC2COCc2cccc(C3=CCOCC3)n2)C1` (some centres unmarked) [Compound I-48]: the IC50 in test [1] is 1 to 10 µM; in test [3], above 10 µM.
On to `CC1(C)C[C@@H]1C(=O)N1CC2(CN(C(=O)c3cncs3)C[C@@H]2COCc2cccc(C3CCOCC3)n2)C1` [Compound I-64, ((R)-2-((S)-2,2-dimethylcyclopropane-1-carbonyl)-8-(((6-(tetrahydro-2H-pyran-4-yl)pyridin-2-yl)methoxy)methyl)-2,6-diazaspiro[3.4]octan-6-yl)(thiazol-5-yl) methanone], for which the results for the IC50 in test [1] and in test [3] were 1 to 10 µM and above 10 µM, respectively.
